# According to ChEMBL document CHEMBL4680144, “N-thiadiazole-4-hydroxy-2-quinolone-3-carboxamides bearing heteroaromatic rings as novel antibacterial agents: Design, synthesis, biological evaluation and target identification” (Eur J Med Chem, 2020):
# Assays:
# [1] = test system: Enterococcus faecalis; assay: Antibacterial activity against Enterococcus faecalis clinical isolate 15-1 assessed as inhibition of bacterial growth incubated for 18 to 24 hrs by broth microdilution method; type: functional; settings: time 18-24 hrs
# [2] = test system: Enterococcus faecalis; assay: Antibacterial activity against vancomycin-resistant Enterococcus faecalis ATCC 51299 assessed as inhibition of bacterial growth incubated for 18 to 24 hrs by broth microdilution method; type: functional; settings: time 18-24 hrs
# [3] = test system: Enterococcus faecalis; assay: Antibacterial activity against Enterococcus faecalis clinical isolate 15-2 assessed as inhibition of bacterial growth incubated for 18 to 24 hrs by broth microdilution method; type: functional; settings: time 18-24 hrs
# [4] = test system: Staphylococcus aureus; assay: Bactericidal activity against methicillin-resistant Staphylococcus aureus clinical isolate 15-1 assessed as reduction in log10CFU at 4 times MIC measured over 24 hrs by time kill kinetics analysis; type: functional
# [5] = test system: Staphylococcus aureus; assay: Antibacterial activity against methicillin resistant and vancomycin-intermediate sensitive Staphylococcus aureus ATCC 700788 assessed as inhibition of bacterial growth incubated for 18 to 24 hrs by broth microdilution method; type: functional; settings: time 18-24 hrs
# [6] = test system: Staphylococcus aureus; assay: Antibacterial activity against methicillin-resistant Staphylococcus aureus clinical isolate 15-1 assessed as reduction in bacterial growth treated for 20 passages; type: functional; settings: time 24 hrs
# [7] = test system: Staphylococcus aureus; assay: Bactericidal activity against methicillin-resistant Staphylococcus aureus clinical isolate 15-1 assessed as reduction in log10CFU at 8 times MIC measured over 24 hrs by time kill kinetics analysis; type: functional
# [8] = test system: Staphylococcus epidermidis; assay: Antibacterial activity against methicillin-sensitive Staphylococcus epidermidis clinical isolate 15-4 assessed as inhibition of bacterial growth incubated for 18 to 24 hrs by broth microdilution method; type: functional; settings: time 18-24 hrs
# [9] = test system: Staphylococcus aureus; assay: Antibacterial activity against methicillin-resistant Staphylococcus aureus clinical isolate 15-6 assessed as inhibition of bacterial growth incubated for 18 to 24 hrs by broth microdilution method; type: functional; settings: time 18-24 hrs
# [10] = Inhibition of Staphylococcus aureus Gyrase B using linear pBR322 DNA as substrate incubated for 30 mins in presence of ATP by ADP-Glo assay
# [11] = test system: Staphylococcus aureus; assay: Antibacterial activity against methicillin-resistant Staphylococcus aureus clinical isolate 15-2 assessed as inhibition of bacterial growth incubated for 18 to 24 hrs by broth microdilution method; type: functional; settings: time 18-24 hrs
# [12] = test system: Staphylococcus epidermidis; assay: Antibacterial activity against methicillin-resistant Staphylococcus epidermidis clinical isolate 15-1 assessed as inhibition of bacterial growth incubated for 18 to 24 hrs by broth microdilution method; type: functional; settings: time 18-24 hrs
# [13] = test system: Enterococcus faecalis; assay: Antibacterial activity against vancomycin-resistant Enterococcus faecalis ATCC 51575 assessed as inhibition of bacterial growth incubated for 18 to 24 hrs by broth microdilution method; type: functional; settings: time 18-24 hrs
# [14] = test system: Enterococcus faecium; assay: Antibacterial activity against Enterococcus faecium clinical isolate 15-2 assessed as inhibition of bacterial growth incubated for 18 to 24 hrs by broth microdilution method; type: functional; settings: time 18-24 hrs
# [15] = test system: Staphylococcus aureus; assay: Antibacterial activity against wild type methicillin-sensitive Staphylococcus aureus ATCC 29213 assessed as inhibition of bacterial growth incubated for 18 to 24 hrs by broth microdilution method; type: functional; settings: time 18-24 hrs
# [16] = test system: Staphylococcus aureus; assay: Antibacterial activity against methicillin-resistant Staphylococcus aureus clinical isolate 15-7 assessed as inhibition of bacterial growth incubated for 18 to 24 hrs by broth microdilution method; type: functional; settings: time 18-24 hrs
# [17] = test system: Staphylococcus epidermidis; assay: Antibacterial activity against methicillin-resistant Staphylococcus epidermidis clinical isolate 15-2 assessed as inhibition of bacterial growth incubated for 18 to 24 hrs by broth microdilution method; type: functional; settings: time 18-24 hrs
# [18] = test system: Staphylococcus aureus; assay: Antibacterial activity against methicillin-resistant Staphylococcus aureus clinical isolate 15-8 assessed as inhibition of bacterial growth incubated for 18 to 24 hrs by broth microdilution method; type: functional; settings: time 18-24 hrs
# [19] = test system: Staphylococcus aureus; assay: Antibacterial activity against methicillin-resistant Staphylococcus aureus clinical isolate 15-1 assessed as inhibition of bacterial growth incubated for 18 to 24 hrs by broth microdilution method; type: functional; settings: time 18-24 hrs
# [20] = test system: Staphylococcus aureus; assay: Antibacterial activity against methicillin resistant and vancomycin-intermediate sensitive Staphylococcus aureus ATCC 700699 assessed as inhibition of bacterial growth incubated for 18 to 24 hrs by broth microdilution method; type: functional; settings: time 18-24 hrs
# [21] = test system: Staphylococcus epidermidis; assay: Antibacterial activity against methicillin-sensitive Staphylococcus epidermidis clinical isolate 15-3 assessed as inhibition of bacterial growth incubated for 18 to 24 hrs by broth microdilution method; type: functional; settings: time 18-24 hrs
# [22] = test system: Staphylococcus epidermidis; assay: Antibacterial activity against methicillin-resistant Staphylococcus epidermidis clinical isolate 15-3 assessed as inhibition of bacterial growth incubated for 18 to 24 hrs by broth microdilution method; type: functional; settings: time 18-24 hrs
# [23] = test system: Enterococcus faecalis; assay: Antibacterial activity against vancomycin-resistant Enterococcus faecalis ATCC 700802 assessed as inhibition of bacterial growth incubated for 18 to 24 hrs by broth microdilution method; type: functional; settings: time 18-24 hrs
# [24] = test system: Staphylococcus aureus; assay: Antibacterial activity against methicillin-resistant Staphylococcus aureus clinical isolate 15-3 assessed as inhibition of bacterial growth incubated for 18 to 24 hrs by broth microdilution method; type: functional; settings: time 18-24 hrs
# [25] = test system: Enterococcus faecium; assay: Antibacterial activity against Enterococcus faecium clinical isolate 15-1 assessed as inhibition of bacterial growth incubated for 18 to 24 hrs by broth microdilution method; type: functional; settings: time 18-24 hrs
# [26] = test system: Staphylococcus aureus; assay: Antibacterial activity against methicillin-resistant Staphylococcus aureus clinical isolate 15-9 assessed as inhibition of bacterial growth incubated for 18 to 24 hrs by broth microdilution method; type: functional; settings: time 18-24 hrs
# [27] = Selectivity index, ratio of IC50 for human HUVEC cells to MIC for methicillin-resistant Staphylococcus aureus; type: toxicity
# [28] = Selectivity index, ratio of IC50 for human HepG2 cells to MIC for methicillin-resistant Staphylococcus aureus; type: toxicity
# [29] = test system: HepG2; assay: Cytotoxicity against human HepG2 cells assessed as reduction in cell viability after 72 hrs by sulforhodamine B assay; type: cell-based; settings: HepG2, 72 h
# [30] = test system: HUVEC; assay: Cytotoxicity against HUVEC assessed as reduction in cell viability after 72 hrs by sulforhodamine B assay; type: cell-based; settings: Homo sapiens
Structure (SMILES),MIC [1],MIC [2],MIC [3],MIC [5],MIC [8],MIC [9],IC50 [10],MIC [11],MIC [12],MIC [13],MIC [14],MIC [15],MIC [16],MIC [17],MIC [18],MIC [19],MIC [20],MIC [21],MIC [22],MIC [23],other results
CN[C@H](CC(C)C)C(=O)N[C@H]1C(=O)N[C@@H](CC(N)=O)C(=O)N[C@H]2C(=O)N[C@H]3C(=O)N[C@H](C(=O)N[C@H](C(=O)O)c4cc(O)cc(O)c4-c4cc3ccc4O)[C@H](O)c3ccc(c(Cl)c3)Oc3cc2cc(c3O[C@@H]2O[C@H](CO)[C@@H](O)[C@H](O)[C@H]2O[C@H]2C[C@](C)(N)[C@H](O)[C@H](C)O2)Oc2ccc(cc2Cl)[C@H]1O [VANCOMYCIN],2 µg/mL,32 µg/mL,2 µg/mL,8 µg/mL,–,–,–,–,–,–,–,–,–,–,–,–,–,–,–,–,Activity [4]: >3 log10CFU/ml; MIC [6]: 8 µg/mL; Activity [7]: 3 log10CFU/ml
CCCCc1nnc(NC(=O)c2c(O)c3ccccc3n(CC)c2=O)s1,2 µg/mL,8 µg/mL,2 µg/mL,4 µg/mL,2 µg/mL,2 µg/mL,990 nM,2 µg/mL,2 µg/mL,8 µg/mL,2 µg/mL,0.1 µg/mL,4 µg/mL,2 µg/mL,2 µg/mL,2 µg/mL,4 µg/mL,2 µg/mL,2 µg/mL,8 µg/mL,MIC [24]: 2 µg/mL; MIC [25]: 2 µg/mL; MIC [26]: 2 µg/mL
CCn1c(=O)c(C(=O)Nc2nnc(-c3ccccc3)s2)c(O)c2ccccc21,1 µg/mL,1 µg/mL,1 µg/mL,2 µg/mL,1 µg/mL,0.5 µg/mL,1720 nM,2 µg/mL,1 µg/mL,1 µg/mL,2 µg/mL,0.39 µg/mL,1 µg/mL,1 µg/mL,0.5 µg/mL,2 µg/mL,2 µg/mL,1 µg/mL,1 µg/mL,1 µg/mL,MIC [24]: 1 µg/mL; MIC [25]: 1 µg/mL; MIC [26]: 0.25 µg/mL
CCCCCc1nnc(NC(=O)c2c(O)c3ccccc3n(CC)c2=O)s1,2 µg/mL,1 µg/mL,1 µg/mL,1 µg/mL,1 µg/mL,0.5 µg/mL,470 nM,1 µg/mL,1 µg/mL,1 µg/mL,1 µg/mL,0.1 µg/mL,0.5 µg/mL,1 µg/mL,0.5 µg/mL,0.5 µg/mL,1 µg/mL,1 µg/mL,1 µg/mL,1 µg/mL,selectivity ratio [27]: 41.9; selectivity ratio [28]: 52.1; MIC [24]: 0.5 µg/mL; MIC [25]: 1 µg/mL; IC50 [29]: 52100 nM; IC50 [30]: 41900 nM; MIC [26]: 1 µg/mL
CC(=O)O[C@H]1C(=O)[C@@]2(C)[C@H]([C@H](OC(=O)c3ccccc3)[C@]3(O)C[C@H](OC(=O)[C@H](O)[C@@H](NC(=O)c4ccccc4)c4ccccc4)C(C)=C1C3(C)C)[C@]1(OC(C)=O)CO[C@@H]1C[C@@H]2O [PACLITAXEL],–,–,–,–,–,–,–,–,–,–,–,–,–,–,–,–,–,–,–,–,IC50 [29]: 9 nM; IC50 [30]: 1.3 nM
